25 compounds from patent publication US20250092014A1, “COMPOUNDS AND METHODS OF ACTIVATING LIPOPROTEIN LIPASE” (Metrea Biosciences, Inc., priority 2021, published 2025) can be followed below.

The test concerns the target T1, LPL:sGPIHBP1 complex (Homo sapiens, UniProt P06858).
T1 sequence (P06858 28-475): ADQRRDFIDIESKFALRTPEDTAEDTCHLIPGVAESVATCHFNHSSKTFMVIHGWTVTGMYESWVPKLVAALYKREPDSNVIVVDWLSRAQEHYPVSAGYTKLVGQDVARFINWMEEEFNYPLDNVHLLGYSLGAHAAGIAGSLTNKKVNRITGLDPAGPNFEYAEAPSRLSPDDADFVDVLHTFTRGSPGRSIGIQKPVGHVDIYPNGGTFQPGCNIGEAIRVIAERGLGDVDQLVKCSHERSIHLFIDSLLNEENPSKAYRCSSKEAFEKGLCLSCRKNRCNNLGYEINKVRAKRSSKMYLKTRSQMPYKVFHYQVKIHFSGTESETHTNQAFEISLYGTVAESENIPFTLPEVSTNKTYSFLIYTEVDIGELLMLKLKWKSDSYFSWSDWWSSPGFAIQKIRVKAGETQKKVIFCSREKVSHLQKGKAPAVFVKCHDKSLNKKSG
T1 sequence (Q8IV16 21-151 partner limits assumed): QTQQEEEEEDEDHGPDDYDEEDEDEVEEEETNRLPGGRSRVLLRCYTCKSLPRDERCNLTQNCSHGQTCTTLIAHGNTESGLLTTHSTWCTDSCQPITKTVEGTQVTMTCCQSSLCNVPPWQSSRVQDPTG
The experiment in a line: RB assay (LPL:sGPIHBP1 pre-incubated with ANGPTL4, RB substrate). It is filed as biochemical. Particulars: read-out: RB qAC50. How it is done:
The assay was performed in black 1536-well plates using purified proteins. To identify compounds that stimulate LPL activity either by directly activating LPL or by inhibiting the antagonist ANGPTL4, the LPL:sGPIHBP1 complex was pre-incubated with ANGPTL4 to decrease LPL activity by 80%. After a 60 min pre-incubation, the reaction was started by adding the RB substrate. 30 min after RB addition, the enzymatic reaction was stopped using SDS. Fluorescence intensity was measured 2 h after stopping the reaction.
20 or 40 nl of compound solution in 100% DMSO were placed in test plate. Then was added LPL:sGPIHBP1 to all wells (diluted in assay buffer to 5 nM; 2 μl/well). This was followed by an addition of ANGPTL4 to compounds and neutral controls (diluted in assay buffer to 20 nM; 1 μl/well). A buffer solution was added to the stimulator control (1 μl/well). The plates were then centrifuged and pre-incubated for 60 min at RT. The reaction was started by adding substrate to all wells (diluted in assay buffer to 40 μM, 1 μl/well). The plated were centrifuged (800 rpm for 1 min) and incubated 30 min at RT (=reaction time). The reaction was stopped by adding SDS to all wells (diluted in water to 2.5%, 2 μl/well); incubated 2 h at RT. The fluorescence intensity (ex 540 nm/em 590 nm) was measured on a Pherastar (BMG) using 5 flashes.
In the case of `O=C(O)Cc1cc(F)ccc1NC(=O)c1ccc(N2CC3CCC2C3)c(NC(=O)c2nn(CC(F)(F)F)c3ccccc23)c1` (racemic) [Example 58], the EC50 worked out at 18 µM.
In the case of `O=C(O)Cc1cc(Cl)ccc1NC(=O)c1ccc(N2CCCCC2)c(NC(=O)c2nn(CC(F)(F)F)c3ccccc23)c1` [Compound 23, 2-(5-chloro-2-(4-(piperidin-1-yl)-3-(1-(2,2,2-trifluoroethyl)-1H-indazole-3-carboxamido)benzamido)phenyl)acetic acid], the EC50 amounted to 4.6 µM.
As for `O=C(O)Cc1cccc(F)c1NC(=O)c1ccc(N2CCCCC2)c(NC(=O)c2nn(CC(F)(F)F)c3ccccc23)c1` [Compound 24, 2-(3-fluoro-2-(4-(piperidin-1-yl)-3-(1-(2,2,2-trifluoroethyl)-1H-indazole-3-carboxamido)benzamido)phenyl)acetic acid], the figure is 3.2 µM.
As for `O=C(O)Cc1c(F)cccc1NC(=O)c1ccc(N2CCCCC2)c(NC(=O)c2nn(CC(F)(F)F)c3ccccc23)c1` [Compound 37, 2-(2-fluoro-6-(4-(piperidin-1-yl)-3-(1-(2,2,2-trifluoroethyl)-1H-indazole-3-carboxamido)benzamido)phenyl)acetic acid], the figure is 5 µM; as for `O=C(O)Cc1ccc(F)cc1NC(=O)c1ccc(N2CCCCC2)c(NC(=O)c2nn(CC(F)(F)F)c3ccccc23)c1` [Compound 38, 2-(4-fluoro-2-(4-(piperidin-1-yl)-3-(1-(2,2,2-trifluoroethyl)-1H-indazole-3-carboxamido)benzamido)phenyl)acetic acid], 3.6 µM.
Regarding `O=C(O)Cc1cc(F)ccc1NC(=O)c1ccc(N2CCC2)c(NC(=O)c2nn(CC(F)(F)F)c3ccccc23)c1` [Compound 39, 2-(2-(4-(azetidin-1-yl)-3-(1-(2,2,2-trifluoroethyl)-1H-indazole-3-carboxamido)benzamido)-5-fluorophenyl)acetic acid], the EC50 was more than 25 µM.
Consider `O=C(O)Cc1cc(F)ccc1NC(=O)c1ccc(N2CCCCC2)c(C(=O)Nc2nn(CC(F)(F)F)c3ccccc23)c1` [Compound 41, 2-(5-fluoro-2-(4-(piperidin-1-yl)-3-((1-(2,2,2-trifluoroethyl)-1H-indazol-3-yl)carbamoyl)benzamido)phenyl)acetic acid], for which the EC50 amounted to 4.8 µM.
For `Cc1c(C(=O)Nc2ccc(F)cc2CC(=O)O)ccc(N2CCCCC2)c1NC(=O)c1nn(CC(F)(F)F)c2ccccc12` [Compound 42, 2-(5-fluoro-2-(2-methyl-4-(piperidin-1-yl)-3-(1-(2,2,2-trifluoroethyl)-1H-indazole-3-carboxamido)benzamido)phenyl)acetic acid], the EC50 was more than 25 µM.
As for `O=C(O)Cc1cc(F)ccc1NC(=O)c1cc(NC(=O)c2nn(CC(F)(F)F)c3ccccc23)c(N2CCCCC2)cn1` [Compound 43, 2-(5-fluoro-2-(5-(piperidin-1-yl)-4-(1-(2,2,2-trifluoroethyl)-1H-indazole-3-carboxamido)picolinamido)phenyl)acetic acid], the figure is more than 7.1 µM.
On to `O=C(O)Cc1cc(F)ccc1NC(=O)c1cnc(N2CCCCC2)c(NC(=O)c2nn(CC(F)(F)F)c3ccccc23)c1` [Compound 44, 2-(5-fluoro-2-(6-(piperidin-1-yl)-5-(1-(2,2,2-trifluoroethyl)-1H-indazole-3-carboxamido)nicotinamido)phenyl)acetic acid], for which the EC50 was more than 25 µM.
Then `O=C(O)Cc1ccccc1C(=O)Nc1ccc(N2CCCCC2)c(C(=O)Nc2nn(CC(F)(F)F)c3ccccc23)c1` [Compound 51, 2-(2-((4-(piperidin-1-yl)-3-((1-(2,2,2-trifluoroethyl)-1H-indazol-3-yl)carbamoyl)phenyl)carbamoyl)phenyl)acetic acid], with 4.1 µM; and `Cc1cc(N2CCCCC2)c(NC(=O)c2nn(CC(F)(F)F)c3ccccc23)cc1C(=O)Nc1ccc(F)cc1CC(=O)O` [Compound 55, 2-(5-fluoro-2-(2-methyl-4-(piperidin-1-yl)-5-(1-(2,2,2-trifluoroethyl)-1H-indazole-3-carboxamido)benzamido)phenyl)acetic acid], with 5 µM; and `O=C(O)Cc1cc(F)ccc1NC(=O)c1ccc(N2CCCCC2)c(NC(=O)c2nn(CC3CC3)c3ccccc23)c1` [Compound 94, 2-(2-(3-(1-(cyclopropylmethyl)-1H-indazole-3-carboxamido)-4-(piperidin-1-yl)benzamido)-5-fluorophenyl)acetic acid], with 5.9 µM.
Then `CC(C)Cn1nc(C(=O)Nc2cc(C(=O)Nc3ccc(F)cc3CC(=O)O)ccc2N2CCCCC2)c2ccccc21` [Compound 95, 2-(5-fluoro-2-(3-(1-isobutyl-1H-indazole-3-carboxamido)-4-(piperidin-1-yl)benzamido)phenyl)acetic acid], with 5 µM; and `O=C(O)Cc1cc(F)ccc1NC(=O)c1ccc(N2CCCCC2)c(NC(=O)c2nn(CC(F)F)c3ccccc23)c1` [Compound 96, 2-(2-(3-(1-(2,2-difluoroethyl)-1H-indazole-3-carboxamido)-4-(piperidin-1-yl)benzamido)-5-fluorophenyl)acetic acid], with 4.7 µM; and `O=C(O)Cc1cc(F)ccc1NC(=O)c1ccc(N2CCCCC2)c(NC(=O)c2nn(C3CC3)c3ccccc23)c1` [Compound 97, 2-(2-(3-(1-cyclopropyl-1H-indazole-3-carboxamido)-4-(piperidin-1-yl)benzamido)-5-fluorophenyl)acetic acid], with 13 µM.
Turning to `O=C(O)Cc1cc(F)ccc1NC(=O)c1ccc(N2CCCCC2)c(NC(=O)c2nn(CC3CCC3)c3ccccc23)c1` [Compound 98, 2-(2-(3-(1-(cyclobutylmethyl)-1H-indazole-3-carboxamido)-4-(piperidin-1-yl)benzamido)-5-fluorophenyl)acetic acid], the EC50 was determined as 6.1 µM.
Regarding `O=C(O)Cc1cc(F)ccc1NC(=O)c1ccc(N2CCCCC2)c(NC(=O)c2nn(CCO)c3ccccc23)c1` [Compound 99, 2-(5-fluoro-2-(3-(1-(2-hydroxyethyl)-1H-indazole-3-carboxamido)-4-(piperidin-1-yl)benzamido)phenyl)acetic acid], the EC50 is more than 25 µM.
Then `NCCn1nc(C(=O)Nc2cc(C(=O)Nc3ccc(F)cc3CC(=O)O)ccc2N2CCCCC2)c2ccccc21` [Compound 100, 2-(2-(3-(1-(2-aminoethyl)-1H-indazole-3-carboxamido)-4-(piperidin-1-yl)benzamido)-5-fluorophenyl)acetic acid], with more than 25 µM; and `O=C(O)Cc1cc(F)ccc1NC(=O)c1ccc(N2CCCCC2)c(NC(=O)c2nn(CCN3CCCC3)c3ccccc23)c1` [Compound 101, 2-(5-fluoro-2-(4-(piperidin-1-yl)-3-(1-(2-(pyrrolidin-1-yl)ethyl)-1H-indazole-3-carboxamido)benzamido)phenyl)acetic acid], with more than 25 µM; and `N#CCn1nc(C(=O)Nc2cc(C(=O)Nc3ccc(F)cc3CC(=O)O)ccc2N2CCCCC2)c2ccccc21` [Compound 102, 2-(2-(3-(1-(cyanomethyl)-1H-indazole-3-carboxamido)-4-(piperidin-1-yl)benzamido)-5-fluorophenyl)acetic acid], with 5.1 µM.
Then `O=C(O)Cc1cc(F)ccc1NC(=O)c1ccc(N2CCCCC2)c(NC(=O)c2nn(CC3CCNCC3)c3ccccc23)c1` [Compound 103, 2-(5-fluoro-2-(4-(piperidin-1-yl)-3-(1-(piperidin-4-ylmethyl)-1H-indazole-3-carboxamido)benzamido)phenyl)acetic acid], with more than 25 µM; and `O=C(O)Cc1cc(F)ccc1NC(=O)c1ccc(N2CCCCC2)c(NC(=O)c2nn(CC3CCOCC3)c3ccccc23)c1` [Compound 104, 2-(5-fluoro-2-(4-(piperidin-1-yl)-3-(1-((tetrahydro-2H-pyran-4-yl)methyl)-1H-indazole-3-carboxamido)benzamido)phenyl)acetic acid], with 3.2 µM.
Then `COCCn1nc(C(=O)Nc2cc(C(=O)Nc3ccc(F)cc3CC(=O)O)ccc2N2CCCCC2)c2ccccc21` [Compound 105, 2-(5-fluoro-2-(3-(1-(2-methoxyethyl)-1H-indazole-3-carboxamido)-4-(piperidin-1-yl)benzamido)phenyl)acetic acid], with 14 µM.
With `CC(C)(O)Cn1nc(C(=O)Nc2cc(C(=O)Nc3ccc(F)cc3CC(=O)O)ccc2N2CCCCC2)c2ccccc21` [Compound 106, 2-(5-fluoro-2-(3-(1-(2-hydroxy-2-methylpropyl)-1H-indazole-3-carboxamido)-4-(piperidin-1-yl)benzamido)phenyl)acetic acid], the EC50 was determined as 7.7 µM.
